Our source for the remaining activity values is patent publication US11208405B2, “Pyrrole derivatives as PLK1 inhibitors” (SENTINEL ONCOLOGY LIMITED, priority 2017, dated 2021).

Each structure is given as a SMILES string. Structures can show the parent of a compound that is named as a salt.

The target of the assay is T1, PLK3 (Homo sapiens, UniProt Q9H4B4).
T1 construct: purchased DiscoverX
Description: Kinase selectivity assay (DiscoverX KinomeScreen), PLK3. The class given is binding. Particulars: PLK3, 5 μM; read-out: % Control. How it is done:
The compound of Example 33 was tested for off-target activity against a panel of fifty five kinases bearing functional or structural similarity to PLK1 at a concentration of 5 μM using the DiscoverX KinomeScreen assay.

T1 sequence (Q9H4B4 whole entry): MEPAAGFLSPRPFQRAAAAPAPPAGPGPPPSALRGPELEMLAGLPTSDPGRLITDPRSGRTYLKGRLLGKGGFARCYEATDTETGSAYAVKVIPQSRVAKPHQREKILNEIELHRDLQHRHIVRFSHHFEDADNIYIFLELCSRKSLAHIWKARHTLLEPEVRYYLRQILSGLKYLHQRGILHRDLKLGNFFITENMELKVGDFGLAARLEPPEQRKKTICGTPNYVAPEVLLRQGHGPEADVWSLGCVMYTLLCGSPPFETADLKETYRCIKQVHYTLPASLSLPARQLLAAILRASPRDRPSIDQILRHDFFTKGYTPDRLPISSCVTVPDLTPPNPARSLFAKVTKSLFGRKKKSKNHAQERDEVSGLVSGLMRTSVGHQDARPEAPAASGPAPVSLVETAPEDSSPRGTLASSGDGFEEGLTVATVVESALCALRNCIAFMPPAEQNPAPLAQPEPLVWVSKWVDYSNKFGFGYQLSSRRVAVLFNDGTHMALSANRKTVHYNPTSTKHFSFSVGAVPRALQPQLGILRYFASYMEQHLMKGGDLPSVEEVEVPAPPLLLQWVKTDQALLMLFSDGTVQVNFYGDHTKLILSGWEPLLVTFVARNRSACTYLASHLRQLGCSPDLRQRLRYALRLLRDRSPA

On to `CN(C)CCNC(=O)c1ccc(-c2ccc(-c3ccc(Cl)cc3)n2-c2ccccc2C(F)(F)F)cc1` [Example 33, 4-[5-(4-chlorophenyl)-1-[2-(trifluoromethyl)phenyl]pyrrol-2-yl]-N-[2-(dimethylamino)ethyl]benzamide Hydrochloride], for which the remaining activity at 5 µM turned out to be 74%.
